Reference: US9211290B2, “Solid dispersions of amorphous paroxetine mesylate” (priority 2012, dated 2015)

Key:
[1] = Physical stability of solid dispersions exposed in open containers to temperature/humidity stress (PLM, XRPD); format: physicochemical
Description: X-ray Powder Diffraction (XRPD): XRPD patterns were collected using a PANalytical X'Pert Pro diffractometer. The specimen was analyzed using Cu radiation produced using an Optix long fine-focus source. An elliptically graded multilayer mirror was used to focus the Cu Kα X-rays of the source through the specimen and onto the detector. The specimen was sandwiched between 3-micron thick films, analyzed in transmission geometry, and rotated to optimize orientation statistics. Soller slits were used for the incident and diffracted beams to minimize axial divergence. Diffraction patterns were collected using a scanning position-sensitive detector (X'Celerator) located 240 mm from the specimen. Prior to the analysis, a silicon specimen (NIST standard reference material 640d) was analyzed to verify the position of the silicon 111 peak.
Polarized Light Microscopy (PLM): Polarized light microscopy was performed using a Leica DM LP microscope equipped with Spot Insight color camera (model 3.2.0). […]
Physical stability experiments were conducted by exposing the dispersions in open containers at Room Temperature (RT) and at elevated temperature and different humidities (expressed as relative humidity, RH). […]
Physical stability was evaluated visually at RT/75% RH after approximately 24 h by PLM for evidence of birefringence and extinction indicative of crystalline material. […]

[2] = Aqueous solubility of paroxetine mesylate Form A; format: physicochemical; conditions: water

| SMILES | Acceptable Physical Stability? RT/58% RH 3 d ([1]; 25° C./58% RH used instead of RT/58% RH (footnote b), 3 d) | Acceptable Physical Stability? 60° C./75% RH 2 h ([1]; 60° C./75% RH, 2 h) | solubility [2] |
| --- | --- | --- | --- |
| CS(=O)(=O)O.Fc1ccc([C@@H]2CCNC[C@H]2COc2ccc3c(c2)OCO3)cc1 [Example 1-2, paroxetine mesylate] | N | N |  |
| CS(=O)(=O)O.Fc1ccc([C@@H]2CCNC[C@H]2COc2ccc3c(c2)OCO3)cc1 [paroxetine mesylate Form A, paroxetine mesylate] |  |  | > 1000 mg/mL |
